Experimental data: DBAASP
Converted amounts (≈) assume the structure as drawn.

Legend:
Assay in all cases: ≥ marks a high value that may be exact or a test limit, other limits are often not marked, values filed in µg/mL are converted to µM
Escherichia coli = system: Escherichia coli
Pseudomonas aeruginosa = system: Pseudomonas aeruginosa
Enterobacter cloacae = system: Enterobacter cloacae
[1] = system: Pseudomonas aeruginosa PAO1
Klebsiella aerogenes = system: Klebsiella aerogenes
Staphylococcus aureus = system: Staphylococcus aureus
[2] = system: Staphylococcus aureus ATCC 25923
Escherichia coli ML-35p = system: Escherichia coli ML-35p
[3] = system: Pseudomonas aeruginosa ATCC 27853
[4] = system: Escherichia coli ATCC 25922
[5] = system: Escherichia coli CPCC 100521
[6] = system: Staphylococcus aureus CPCC 100520
[7] = system: Candida albicans CPCC 400416
[8] = system: Pseudomonas aeruginosa CCARM 2095
[9] = system: Escherichia coli KCTC 1682
[10] = system: Bacillus subtilis KCTC 3028
[11] = system: Salmonella typhimurium KCTC 1926
[12] = system: Staphylococcus aureus KCTC 1621
[13] = system: Acinetobacter baumannii CCARM 12036
[14] = system: Escherichia coli CCARM 1238
[15] = system: Escherichia coli CCARM 1229
[16] = system: Pseudomonas aeruginosa KCTC 1637
[17] = system: Acinetobacter baumannii KCTC 2508
[18] = system: Salmonella typhimurium CCARM 8007
[19] = system: Salmonella typhimurium CCARM 8003
[20] = system: Staphylococcus aureus CCARM 3089
[21] = system: Staphylococcus aureus CCARM 3126
[22] = system: Acinetobacter baumannii CCARM 12035
[23] = system: Staphylococcus epidermidis KCTC 1917
[24] = system: Pseudomonas aeruginosa CCARM 2002
[25] = system: Staphylococcus aureus CCARM 3108
[26] = system: Staphylococcus aureus ATCC 33592
[27] = system: Staphylococcus aureus NCTC 8530
Aeromonas sobria = system: Aeromonas sobria
Edwardsiella tarda = system: Edwardsiella tarda
[28] = system: Staphylococcus epidermidis CGMCC 1.2429
[29] = system: Vibrio alginolyticus CGMCC 1.1833
[30] = system: Staphylococcus aureus CGMCC 1.363
[31] = system: Vibrio fluvialis CGMCC 1.1609
[32] = system: Bacillus subtilis CGMCC 1.108
[33] = system: Candida albicans CGMCC 2.2411
[34] = system: Vibrio parahaemolyticus CGMCC 1.1615
Escherichia coli MC1061 = system: Escherichia coli MC1061
[35] = system: Corynebacterium glutamicum CGMCC 1.1886
[36] = system: Micrococcus luteus CGMCC 1.0634
[37] = system: Vibrio harveyi CGMCC 1.1593
[38] = system: Shigella flexneri CGMCC 1.1868
[39] = system: Aeromonas hydrophila CGMCC 1.0927
[40] = system: Pseudomonas fluorescens CGMCC 1.0032
[41] = system: Micrococcus luteus CGMCC 1.634

CC[C@H](C)[C@H](NC(=O)[C@@H](NC(=O)[C@H](CCCN=C(N)N)NC(=O)[C@@H]1CCCN1C(=O)[C@H](CCCCN)NC(=O)[C@H](CCCCN)NC(=O)[C@H](Cc1ccccc1)NC(=O)[C@H](Cc1ccccc1)NC(=O)[C@H](CCCCN)NC(=O)[C@H](CCCCN)NC(=O)[C@H](C)N)C(C)C)C(=O)NCC(=O)N[C@H](C(=O)N[C@@H](CO)C(=O)N[C@H](C(=O)N1CCC[C@H]1C(=O)N[C@@H](Cc1ccccc1)C(=O)O)[C@@H](C)CC)C(C)C [AKKFFKKPRVIGVSIPF]
MIC (Escherichia coli): 2.04 µM (≈ 4 µg/mL) | MIC (Pseudomonas aeruginosa): 6.62 µM (≈ 13 µg/mL) | MIC (Enterobacter cloacae): 10.7 µM (≈ 21 µg/mL) | MIC [1]: 6.62 µM (≈ 13 µg/mL) | MIC (Klebsiella aerogenes): 13.8 µM (≈ 27 µg/mL) | MIC (Staphylococcus aureus): 5.1 µM (≈ 10 µg/mL) | MIC [2]: 21.4 µM (≈ 42 µg/mL) | MIC (Escherichia coli ML-35p): 2.55 µM (≈ 5 µg/mL) | MIC [3]: 3.57 µM (≈ 7 µg/mL) | MIC [4]: 1.53 µM (≈ 3 µg/mL)

CC[C@H](C)[C@H](NC(=O)CN)C(=O)NCC(=O)NCC(=O)N[C@@H](C)C(=O)N[C@@H](CC(C)C)C(=O)N[C@@H](CC(C)C)C(=O)N[C@@H](CO)C(=O)N[C@@H](C)C(=O)NCC(=O)N[C@@H](CCCCN)C(=O)N[C@@H](CO)C(=O)N[C@@H](C)C(=O)N[C@@H](CC(C)C)C(=O)N[C@@H](CCCCN)C(=O)NCC(=O)N[C@@H](CC(C)C)C(=O)N[C@@H](C)C(=O)N[C@@H](CCCCN)C(=O)NCC(=O)N[C@@H](CC(C)C)C(=O)N[C@@H](C)C(=O)N[C@@H](CCC(=O)O)C(=O)N[C@@H](Cc1cnc[nH]1)C(=O)N[C@@H](Cc1ccccc1)C(=O)N[C@@H](C)C(=O)N[C@@H](CC(N)=O)C(N)=O [GIGGALLSAGKSALKGLAKGLAEHFAN]
MIC [5]: 6.3 µM (≈ 16.1 µg/mL) | MIC [6]: 6.3 µM (≈ 16.1 µg/mL) | MIC [7]: 12.5 µM (≈ 31.9 µg/mL)

CC[C@H](C)[C@H](NC(=O)[C@H](C)NC(=O)[C@H](CCCCN)NC(=O)[C@H](Cc1cnc[nH]1)NC(=O)[C@@H](NC(=O)[C@@H]1CCCN1C(=O)[C@H](CCC(N)=O)NC(=O)[C@H](Cc1ccccc1)NC(=O)[C@@H](NC(=O)[C@H](CCCCN)NC(=O)[C@H](CCCCN)NC(=O)[C@H](CC(C)C)NC(=O)[C@H](C)NC(=O)[C@H](CC(N)=O)NC(=O)[C@H](CC(C)C)NC(=O)CN)C(C)C)[C@@H](C)CC)C(=O)N[C@@H](CCCCN)C(=O)N[C@@H](CCCCN)C(=O)N[C@H](C(=O)N[C@@H](CC(N)=O)C(=O)N[C@@H](CC(N)=O)C(=O)N[C@@H](Cc1cnc[nH]1)C(=O)N[C@H](C(=O)N[C@@H](CCC(N)=O)C(=O)O)C(C)C)[C@@H](C)CC [GLNALKKVFQPIHKAIKKINNHVQ]
MIC [8]: 16 µM (≈ 43.8 µg/mL) | MIC [9]: 4 µM (≈ 11 µg/mL) | MIC [10]: ≥ 32 µM | MIC [11]: 8 µM (≈ 21.9 µg/mL) | MIC [12]: ≥ 32 µM | MIC [13]: 8 µM (≈ 21.9 µg/mL) | MIC [14]: 8 µM (≈ 21.9 µg/mL) | MIC [15]: 8 µM (≈ 21.9 µg/mL) | MIC [16]: 8 µM (≈ 21.9 µg/mL) | MIC [17]: 8 µM (≈ 21.9 µg/mL) | MIC [18]: 16 µM (≈ 43.8 µg/mL) | MIC [19]: 16 µM (≈ 43.8 µg/mL) | MIC [20]: ≥ 32 µM | MIC [21]: ≥ 64 µM | MIC [22]: 16 µM (≈ 43.8 µg/mL) | MIC [23]: ≥ 64 µM | MIC [24]: 16 µM (≈ 43.8 µg/mL) | MIC [25]: ≥ 32 µM

CC[C@H](C)[C@H](NC(=O)[C@H](CCCCN)NC(=O)[C@H](CCCN=C(N)N)NC(=O)[C@@H](N)CCCCN)C(=O)N[C@@H](Cc1ccccc1)C(=O)N[C@@H](CC(C)C)C(=O)N[C@@H](CCCN=C(N)N)C(=O)N[C@H](C(=O)N[C@@H](CCCCN)C(=O)N[C@H](C(=O)N[C@@H](CC(C)C)C(=O)N[C@H](C(=O)O)C(C)C)[C@@H](C)CC)[C@@H](C)O [KRKIFLRTKILV]
MIC [26]: 3 µM (≈ 4.54 µg/mL) | MIC [27]: 3 µM (≈ 4.54 µg/mL)

CC[C@H](C)[C@H](NC(=O)[C@H](CCCN=C(N)N)NC(=O)CNC(=O)[C@@H](N)C(C)C)C(=O)N[C@@H](Cc1cnc[nH]1)C(=O)N[C@@H](CCCN=C(N)N)C(=O)N[C@@H](Cc1cnc[nH]1)C(=O)N[C@@H](CC(C)C)C(=O)N[C@@H](CCCCN)C(=O)O [VGRIHRHLK]
MIC (Aeromonas sobria): ≥ 48 µM | MIC (Edwardsiella tarda): ≥ 48 µM | MIC [28]: ≥ 48 µM | MIC [29]: ≥ 48 µM | MIC [30]: 17 µM (≈ 18.9 µg/mL) | MIC [31]: ≥ 48 µM | MIC [32]: ≥ 48 µM | MIC [33]: ≥ 48 µM | MIC [34]: ≥ 48 µM | MIC (Escherichia coli MC1061): ≥ 48 µM | MIC [35]: 17 µM (≈ 18.9 µg/mL) | MIC [36]: ≥ 48 µM | MIC [37]: ≥ 48 µM | MIC [38]: ≥ 48 µM | MIC [39]: ≥ 48 µM | MIC [40]: 8.49 µM (≈ 9.46 µg/mL) | MIC [41]: 8.49 µM (≈ 9.46 µg/mL)
